A short description of this data set: CHI Log D procedure. Type of data set: physicochemical. To be noted: for chromatographic logD: pH 7.4, CHI Log D; for CHI Log D: pH 7.4.

Molecules are shown by their SMILES.

The compound `CC(=O)N[C@@H](Cc1ccccc1)C(=O)N[C@@H](CC(=O)O)C(=O)N[C@]1(C)CCN(C)C(=O)OCC=CCCCCC[C@@](C)(C(=O)N[C@@H](C)C(=O)N[C@@H](Cc2ccccc2)C(=O)N[C@@H](Cc2c[nH]c3ccccc23)C(=O)N[C@@H](CCC(N)=O)C(N)=O)NC(=O)[C@H](Cc2ccccc2)NC(=O)[C@H](C)NC(=O)[C@H](C)NC(=O)[C@H](CC(=O)O)NC(=O)[C@H](CC(=O)O)NC(=O)[C@H](C)NC1=O` (single isomer, unassigned) [I-49, Ac-Phe-Asp-RdN-Ala-Asp-Asp-Ala-Ala-Phe-S7-Ala-Phe-Trp-Gln-NH2] returned a chromatographic logD of 1.18.
Take `CC(=O)N[C@@H](Cc1ccccc1)C(=O)N[C@@H](CC(=O)O)C(=O)N[C@]1(C)CCN(C)C(=O)OCC=CCCCCC[C@@](C)(C(=O)N[C@@H](C)C(=O)N[C@@H](Cc2ccccc2)C(=O)N[C@@H](Cc2c[nH]c3ccccc23)C(=O)N[C@@H](CCC(N)=O)C(N)=O)NC(=O)[C@H](Cc2ccccc2)NC(=O)[C@H](C)NC(=O)[C@H](C)NC(=O)[C@H](CC(=O)O)NC(=O)[C@H](CC(=O)O)NC(=O)[C@H](C)NC1=O` (single isomer, unassigned) [I-50, Ac-Phe-Asp-RdN-Ala-Asp-Asp-Ala-Ala-Phe-S7-Ala-Phe-Trp-Gln-NH2]: the “CHI Log D” value worked out at 1.201.
Consider `CC(=O)N[C@@H](Cc1ccccc1)C(=O)N[C@@H](CC(=O)O)C(=O)N[C@@H](C)C(=O)N[C@]1(C)CCCCCCC=CCOC(=O)N2CC[C@@](C(=O)N[C@@H](Cc3ccccc3)C(=O)N[C@@H](Cc3c[nH]c4ccccc34)C(=O)N[C@@H](CCC(N)=O)C(N)=O)(C2)NC(=O)[C@H](C(C)C)NC(=O)[C@H](Cc2ccccc2)NC(=O)[C@H](C)NC(=O)[C@H](C)NC(=O)[C@@](C)(Cc2ccccc2)NC(=O)[C@H](CC(=O)O)NC1=O` (single isomer, unassigned) [I-56, Ac-Phe-Asp-Ala-R8-Asp-aMeDF-Ala-Ala-Phe-Val-PyrS-Phe-Trp-Gln-NH2], for which the chromatographic logD stood at 2.16.
For `CC(=O)N[C@@H](Cc1ccccc1)C(=O)N[C@@H](CC(=O)O)C(=O)N[C@@H](C)C(=O)N[C@]1(C)CCCCCCC=CCOC(=O)N2CC[C@@](C(=O)N[C@@H](Cc3ccccc3)C(=O)N[C@@H](Cc3c[nH]c4ccccc34)C(=O)N[C@@H](CCC(N)=O)C(N)=O)(C2)NC(=O)[C@H](C(C)C)NC(=O)[C@H](Cc2ccccc2)NC(=O)[C@H](C)NC(=O)[C@H](C)NC(=O)[C@@](C)(Cc2ccccc2)NC(=O)[C@H](CC(=O)O)NC1=O` (single isomer, unassigned) [I-57, Ac-Phe-Asp-Ala-R8-Asp-aMeDF-Ala-Ala-Phe-Val-PyrS-Phe-Trp-Gln-NH2], the “CHI Log D” value was determined as 2.152.
Compound `CC(=O)N[C@@H](Cc1ccccc1)C(=O)N[C@@H](CC(=O)O)C(=O)N[C@@H](C)C(=O)N[C@]1(C)CCCCCCC=CCOC(=O)N2CC[C@@](C(=O)N[C@@H](Cc3ccccc3)C(=O)N[C@@H](Cc3c[nH]c4ccccc34)C(=O)N[C@@H](CCC(N)=O)C(N)=O)(C2)NC(=O)[C@H](C(C)C)NC(=O)[C@H](Cc2ccccc2)NC(=O)[C@H](C)NC(=O)[C@H](C)NC(=O)[C@H](CCC(N)=O)NC(=O)[C@H](CC(=O)O)NC1=O` (single isomer, unassigned) [I-58, Ac-Phe-Asp-Ala-R8-Asp-Gln-Ala-Ala-Phe-Val-PyrS-Phe-Trp-Gln-NH2] registered a chromatographic logD of 1.5.
The compound `CC(=O)N[C@@H](Cc1ccccc1)C(=O)N[C@@H](CC(=O)O)C(=O)N[C@@H](C)C(=O)N[C@]1(C)CCCCCCC=CCOC(=O)N2CC[C@@](C(=O)N[C@@H](CC3CCCCC3)C(=O)N[C@@H](Cc3c[nH]c4ccccc34)C(=O)N[C@@H](CCC(N)=O)C(N)=O)(C2)NC(=O)[C@H](C(C)C)NC(=O)[C@H](Cc2ccccc2)NC(=O)[C@H](C)NC(=O)[C@H](C)NC(=O)[C@H](CC(=O)O)NC(=O)[C@H](CC(=O)O)NC1=O` (single isomer, unassigned) [I-60, Ac-Phe-Asp-Ala-R8-Asp-Asp-Ala-Ala-Phe-Val-PyrS-Cha-Trp-Gln-NH2] had a chromatographic logD of 1.36.
